Experimental data published in ChEMBL document CHEMBL1201862, “PubChem BioAssay data set” (2004).
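In this assay, cells in 96-well plates receive the compound at five concentrations for 48 hours. Endpoints are linearly interpolated between the surrounding concentrations. Here, GI50 denotes the concentration required for 50% inhibition of growth.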 The source made the active and inactive calls. Cut-off read from the data, not from the text of the source: active = GI50 up to about 1.1 µM and inactive = higher.

Columns and labels:
Experiment in all cases: growth of human tumour cells (NCI), 48 h
LOX IMVI = tested on: LOX IMVI
OVCAR-8 = tested on: OVCAR-8
NCI/ADR-RES = tested on: NCI/ADR-RES
ACHN = tested on: ACHN
RXF 393 = tested on: RXF 393
HCT-116 = tested on: HCT-116
SF-539 = tested on: SF-539
HCC 2998 = tested on: HCC 2998
COLO 205 = tested on: COLO 205
SR = tested on: SR
PC-3 = tested on: PC-3
KM12 = tested on: KM12
SF-268 = tested on: SF-268
SK-MEL-5 = tested on: SK-MEL-5
RPMI-8226 = tested on: RPMI-8226
EKVX = tested on: EKVX
MOLT-4 = tested on: MOLT-4
OVCAR-3 = tested on: OVCAR-3
MDA-MB-231 = tested on: MDA-MB-231
SK-OV-3 = tested on: SK-OV-3

Structure (SMILES)	GI50 (LOX IMVI)	GI50 (OVCAR-8)	GI50 (NCI/ADR-RES)	GI50 (ACHN)	GI50 (RXF 393)	GI50 (HCT-116)	GI50 (SF-539)	GI50 (HCC 2998)	GI50 (COLO 205)	GI50 (SR)	GI50 (PC-3)	GI50 (KM12)	GI50 (SF-268)	GI50 (SK-MEL-5)	GI50 (RPMI-8226)	GI50 (EKVX)	GI50 (MOLT-4)	GI50 (OVCAR-3)	GI50 (MDA-MB-231)	GI50 (SK-OV-3)
CN(C)CCNC(=O)c1cccc2[nH]c(-c3ccncc3)nc12	0.733 µM (active)	6.68 µM (inactive)	13.2 µM (inactive)	6.53 µM (inactive)	5.58 µM (inactive)	4.07 µM (inactive)	2.65 µM (inactive)	1.95 µM (inactive)	1.6 µM (inactive)	3.38 µM (inactive)	3.83 µM (inactive)	4.17 µM (inactive)	11.4 µM (inactive)	2.75 µM (inactive)	3 µM (inactive)	12.4 µM (inactive)	3.56 µM (inactive)	9.62 µM (inactive)	3.24 µM (inactive)	–
Cc1cn(CCCCCCOC(=O)NC(CCCNC(N)=O)C(=O)O)c(=O)[nH]c1=O (stereo unspecified)	> 100 µM (inactive)	> 100 µM (inactive)	> 100 µM (inactive)	> 100 µM (inactive)	> 100 µM (inactive)	> 100 µM (inactive)	> 100 µM (inactive)	> 100 µM (inactive)	> 100 µM (inactive)	> 100 µM (inactive)	> 100 µM (inactive)	> 100 µM (inactive)	> 100 µM (inactive)	–	> 100 µM (inactive)	> 100 µM (inactive)	> 100 µM (inactive)	> 100 µM (inactive)	> 100 µM (inactive)	> 100 µM (inactive)
COc1ccc2oc3c(ccc[n+]3C)c(=O)c2c1	> 100 µM (inactive)	> 100 µM (inactive)	> 100 µM (inactive)	> 100 µM (inactive)	> 100 µM (inactive)	> 100 µM (inactive)	> 100 µM (inactive)	> 100 µM (inactive)	> 100 µM (inactive)	> 100 µM (inactive)	> 100 µM (inactive)	> 100 µM (inactive)	> 100 µM (inactive)	> 100 µM (inactive)	–	> 100 µM (inactive)	–	> 100 µM (inactive)	> 100 µM (inactive)	> 100 µM (inactive)
O=C1CSC2(CC(/C=C/C=C/c3ccccc3)=NN2c2cccc(S(=O)(=O)O)c2)N1c1nc2ccccc2s1 (stereo unspecified)	20 µM (inactive)	42.1 µM (inactive)	51.1 µM (inactive)	40.3 µM (inactive)	> 100 µM (inactive)	46.5 µM (inactive)	51.1 µM (inactive)	69.7 µM (inactive)	50.8 µM (inactive)	21.2 µM (inactive)	37.3 µM (inactive)	45.8 µM (inactive)	–	35.2 µM (inactive)	21.2 µM (inactive)	49 µM (inactive)	21.2 µM (inactive)	–	31.3 µM (inactive)	–
O=c1oc2c/c(=C\c3ccccc3)c(=O)c3cccc1c3-2	19.7 µM (inactive)	19.8 µM (inactive)	33.7 µM (inactive)	> 100 µM (inactive)	32.5 µM (inactive)	25.7 µM (inactive)	31.5 µM (inactive)	> 100 µM (inactive)	37.3 µM (inactive)	28.8 µM (inactive)	56 µM (inactive)	24.9 µM (inactive)	24.1 µM (inactive)	> 10 µM (inactive)	36.2 µM (inactive)	75.3 µM (inactive)	–	23.6 µM (inactive)	31.7 µM (inactive)	> 100 µM (inactive)
COc1cc2c(c(OC)c1OC)-c1ccc(SC)c(=O)cc1[C@@H](OC(=O)c1ccncc1)CC2	< 0.01 µM (active)	< 0.01 µM (active)	< 0.01 µM (active)	< 0.01 µM (active)	7.78 µM (inactive)	< 0.01 µM (active)	< 0.01 µM (active)	< 0.01 µM (active)	< 0.01 µM (active)	< 0.0145 µM (active)	< 0.01 µM (active)	< 0.01 µM (active)	< 0.01 µM (active)	< 0.01 µM (active)	< 0.01 µM (active)	–	< 0.01 µM (active)	< 0.01 µM (active)	< 0.01 µM (active)	0.0165 µM (active)
